Source: patent publication US4652575A, “2-(ethylene-thio methyl furanyl)amino thiazole derivatives having acid secretion inhibiting activity” (Medosan Industrie Biochimiche Riunite S.p.A., priority 1984, dated 1987)
Like-named read-outs stand apart in the source and are kept apart here.

What was measured:
in vivo = details: po; for LD50 at 360 h: mouse; for LD50: rat
Excerpt: The animals were kept under observation by checking mortality and possible pain signs for 15 days from start of test.

histamine H2 receptors = molecular target: T1, histamine H2 receptors (Cavia porcellus, UniProt P47747); assay: Antagonistic activity to the histamine H2 receptors "in vitro" on insulated atrium auricolas of Guinea pig heart; details: for inhibition at 10 µM / inhibition at 1 µM / inhibition at 0.1 µM / inhibition at 0.01 µM: guinea pig, 0.5 h, read-out: Antagonizing activity to histamine H2 receptors; for inhibition at 10 µM: compound 1·10^-5 M/L; for inhibition at 1 µM: compound 1·10^-6 M/L; for inhibition at 0.1 µM: compound 1·10^-7 M/L; for antagonistic action to the histamine H2 receptors (in words): in vitro; for inhibition at 0.01 µM: compound 1·10^-8 M/L
T1 construct: tests on insulated atrium auricolas of Guinea pig heart; from tissue; host or cells: isolated guinea pig heart atrium
T1 sequence (P47747 whole entry): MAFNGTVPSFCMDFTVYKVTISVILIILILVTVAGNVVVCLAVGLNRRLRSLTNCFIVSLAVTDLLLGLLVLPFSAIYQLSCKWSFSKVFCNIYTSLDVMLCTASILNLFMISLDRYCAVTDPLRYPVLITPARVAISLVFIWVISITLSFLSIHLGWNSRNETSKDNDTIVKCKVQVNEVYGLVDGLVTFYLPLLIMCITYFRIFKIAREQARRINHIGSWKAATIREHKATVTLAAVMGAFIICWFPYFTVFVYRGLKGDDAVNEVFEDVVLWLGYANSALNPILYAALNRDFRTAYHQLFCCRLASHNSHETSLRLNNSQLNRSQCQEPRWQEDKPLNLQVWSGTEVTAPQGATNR
Method: (§1) The preparations were a solution of the substances in 2.5% citric acid for the "in vitro" test and 5% citric acid for the "in vivo" test respectively. Citric acid was diluted in normal physiologic saline at neutral pH.
This activity was evaluated "in vitro" by carrying out tests on insulated atrium auricolas of Guinea pig heart. […] Metering was carried out by placing the preparation into a vessel containing a Ringer-Locke solution wherein pure oxygen was bubbling, at a temperature of 37° C. A response of the organ "in vitro" was first established at cumulative histamine doses of 2.5.10^-7, 5.10^-7, 10^-6, 5.10^-6, 10^-5 M/L. After obtaining two constant lines with histamine at a time interval of one hour from one another, the substances under test were added to the bath and after a 30 minutes contact with the preparation, a new histamine response line in the presence of the substance under test was drawn. The activity was tested at various concentrations of the new compounds (10^-5, 10^-6, 10^-7 and in one case 10^-8 M/L).

gastric secretion = assay: Activity on gastric secretion "in vivo" (volume and total acidity of gastric juice after pylorus tieing, Shay); set-up: species or system male Wistar rats; details: for Total acidity gastric juice secretion / Volume gastric juice secretion / change in vivo at 20 mg/kg: 20 mg/kg oral; for change in vivo at 20 mg/kg / ED50: Rattus norvegicus, po; for ED50: per os, 1 hour before pilorus tieing, read-out: DE50 in rat calculated on total acidity (mEq/4 hours); for ability to reduce the gastric acid secretion (in words): volume and total acidity of gastric juice
Method: as §1
The ability of the compounds according to the present invention to inhibit the gastric secretion was studied "in vivo" both by evaluating the volume reduction of gastric juice, and by measuring the total acidity of same after administration of the substances under test according to the Takeda method (see the aforementioned literature).
To this end, tests have been made on male Wistar rats of an average weight of 200 g. The animals, 10 for each substance, were placed into individual cages provided with ground grating in order to avoid coprophagy, without food but with free access to water for 24 hours before test. […] Four hours later the animals were sacrificed and the gastric juice was collected, of which the volume expressed in ml and the total acidity expressed in mEq was measured. The gastric juice ([…] ) was titrated with 0.1N NaOH to pH 7 to determine the acid concentration. The total acidity was then calculated as the product of the total volume of gastric juice by the acid concentration.

[1] = 6 hours before pilorus tieing, read-out: Total acidity gastric juice secretion, Variation %
[2] = 6 hours before pilorus tieing, read-out: Volume gastric juice secretion, Variation %
[3] = 12 hours before pilorus tieing, read-out: Total acidity gastric juice secretion, Variation %
[4] = 12 hours before pilorus tieing, read-out: Volume gastric juice secretion, Variation %
[5] = 24 hours before pilorus tieing, read-out: Total acidity gastric juice secretion, Variation %
[6] = 24 hours before pilorus tieing, read-out: Volume gastric juice secretion, Variation %
[7] = 36 hours before pilorus tieing, read-out: Total acidity gastric juice secretion, Variation %
[8] = 36 hours before pilorus tieing, read-out: Volume gastric juice secretion, Variation %

SMILES: CN(C)Cc1ccc(CSCCNc2nc(-c3ccccc3)cs2)o1 [Example No. 3, 2-(2-(((5-(dimethylamino)methyl-2-furanyl)methyl)thio)ethyl)-amino-4-phenylthiazole]
- LD50 at 360 h (in vivo): 550 mg/kg
- LD50 (in vivo): 900 mg/kg
- inhibition at 10 µM (histamine H2 receptors; histamine 1·10^-5 M/L): 95%
- inhibition at 10 µM (histamine H2 receptors; histamine 1·10^-6 M/L): 100%
- inhibition at 10 µM (histamine H2 receptors; histamine 2,5·10^-7 M/L): 100%
- inhibition at 10 µM (histamine H2 receptors; histamine 5·10^-6 M/L): 100%
- inhibition at 10 µM (histamine H2 receptors; histamine 5·10^-7 M/L): 100%
- inhibition at 1 µM (histamine H2 receptors; histamine 1·10^-5 M/L): 52%
- inhibition at 1 µM (histamine H2 receptors; histamine 1·10^-6 M/L): 85%
- inhibition at 1 µM (histamine H2 receptors; histamine 2,5·10^-7 M/L): 100%
- inhibition at 1 µM (histamine H2 receptors; histamine 5·10^-6 M/L): 70%
- inhibition at 1 µM (histamine H2 receptors; histamine 5·10^-7 M/L): 100%
- inhibition at 0.1 µM (histamine H2 receptors; histamine 1·10^-5 M/L): 20%
- inhibition at 0.1 µM (histamine H2 receptors; histamine 1·10^-6 M/L): 50%
- inhibition at 0.1 µM (histamine H2 receptors; histamine 2,5·10^-7 M/L): 85%
- inhibition at 0.1 µM (histamine H2 receptors; histamine 5·10^-6 M/L): 30%
- inhibition at 0.1 µM (histamine H2 receptors; histamine 5·10^-7 M/L): 70%
- antagonistic action to the histamine H2 receptors (in words) (histamine H2 receptors): interesting ability
- Total acidity gastric juice secretion (gastric secretion; 6 hours before pilorus tieing): 0,07 mEq/4 hours
- Volume gastric juice secretion (gastric secretion; 6 hours before pilorus tieing): 4,0 ml/4 hours
- Total acidity gastric juice secretion (gastric secretion; 12 hours before pilorus tieing): 0,10 mEq/4 hours
- Volume gastric juice secretion (gastric secretion; 12 hours before pilorus tieing): 4,1 ml/4 hours
- Total acidity gastric juice secretion (gastric secretion; 24 hours before pilorus tieing): 0,12 mEq/4 hours
- Volume gastric juice secretion (gastric secretion; 24 hours before pilorus tieing): 4,8 ml/4 hours
- Total acidity gastric juice secretion (gastric secretion; 36 hours before pilorus tieing): 0,15 mEq/4 hours
- Volume gastric juice secretion (gastric secretion; 36 hours before pilorus tieing): 5,0 ml/4 hours
- change in vivo at 20 mg/kg (gastric secretion; [1]): -59%
- change in vivo at 20 mg/kg (gastric secretion; [2]): -24%
- change in vivo at 20 mg/kg (gastric secretion; [3]): -33%
- change in vivo at 20 mg/kg (gastric secretion; [4]): -20%
- change in vivo at 20 mg/kg (gastric secretion; [5]): -29%
- change in vivo at 20 mg/kg (gastric secretion; [6]): -14%
- change in vivo at 20 mg/kg (gastric secretion; [7]): -6%
- change in vivo at 20 mg/kg (gastric secretion; [8]): -11%
- ED50 (gastric secretion): 2.2 mg/kg
- ability to reduce the gastric acid secretion (in words) (gastric secretion): interesting ability

SMILES: CN(C)Cc1ccc(CSCCNc2nc(C=Cc3ccccc3)cs2)o1 [Example No. 4, 2-(2-(((5-(dimethylamino)methyl-2-furanyl)methyl)thio)ethyl)amino-4-styryl-thiazole]
- LD50 at 360 h (in vivo): 2900 mg/kg
- LD50 (in vivo): 3000 mg/kg
- inhibition at 10 µM (histamine H2 receptors; histamine 1·10^-5 M/L): 93%
- inhibition at 10 µM (histamine H2 receptors; histamine 1·10^-6 M/L): 100%
- inhibition at 10 µM (histamine H2 receptors; histamine 2,5·10^-7 M/L): 100%
- inhibition at 10 µM (histamine H2 receptors; histamine 5·10^-6 M/L): 100%
- inhibition at 10 µM (histamine H2 receptors; histamine 5·10^-7 M/L): 100%
- inhibition at 1 µM (histamine H2 receptors; histamine 1·10^-5 M/L): 38%
- inhibition at 1 µM (histamine H2 receptors; histamine 1·10^-6 M/L): 70%
- inhibition at 1 µM (histamine H2 receptors; histamine 2,5·10^-7 M/L): 100%
- inhibition at 1 µM (histamine H2 receptors; histamine 5·10^-6 M/L): 60%
- inhibition at 1 µM (histamine H2 receptors; histamine 5·10^-7 M/L): 100%
- inhibition at 0.1 µM (histamine H2 receptors; histamine 1·10^-5 M/L): 20%
- inhibition at 0.1 µM (histamine H2 receptors; histamine 1·10^-6 M/L): 45%
- inhibition at 0.1 µM (histamine H2 receptors; histamine 2,5·10^-7 M/L): 90%
- inhibition at 0.1 µM (histamine H2 receptors; histamine 5·10^-6 M/L): 35%
- inhibition at 0.1 µM (histamine H2 receptors; histamine 5·10^-7 M/L): 70%
- antagonistic action to the histamine H2 receptors (in words) (histamine H2 receptors): interesting ability
- Total acidity gastric juice secretion (gastric secretion; 6 hours before pilorus tieing): 0,09 mEq/4 hours
- Volume gastric juice secretion (gastric secretion; 6 hours before pilorus tieing): 3,9 ml/4 hours
- Total acidity gastric juice secretion (gastric secretion; 12 hours before pilorus tieing): 0,08 mEq/4 hours
- Volume gastric juice secretion (gastric secretion; 12 hours before pilorus tieing): 4,0 ml/4 hours
- Total acidity gastric juice secretion (gastric secretion; 24 hours before pilorus tieing): 0,14 mEq/4 hours
- Volume gastric juice secretion (gastric secretion; 24 hours before pilorus tieing): 4,9 ml/4 hours
- Total acidity gastric juice secretion (gastric secretion; 36 hours before pilorus tieing): 0,14 mEq/4 hours
- Volume gastric juice secretion (gastric secretion; 36 hours before pilorus tieing): 5,3 ml/4 hours
- change in vivo at 20 mg/kg (gastric secretion; [1]): -47%
- change in vivo at 20 mg/kg (gastric secretion; [2]): -26%
- change in vivo at 20 mg/kg (gastric secretion; [3]): -47%
- change in vivo at 20 mg/kg (gastric secretion; [4]): -21%
- change in vivo at 20 mg/kg (gastric secretion; [5]): -18%
- change in vivo at 20 mg/kg (gastric secretion; [6]): -13%
- change in vivo at 20 mg/kg (gastric secretion; [7]): -12%
- change in vivo at 20 mg/kg (gastric secretion; [8]): -5%
- ED50 (gastric secretion): 3.2 mg/kg
- ability to reduce the gastric acid secretion (in words) (gastric secretion): interesting ability

SMILES: CN(C)Cc1ccc(CSCCNc2nc(-c3ccc4ccccc4c3)cs2)o1 [Example No. 6, 2-(2-(((5-(dimethylamino)methyl-2-furanyl)methyl)thio)ethyl)-amino-4-(2-naphthyl)-thiazole]
- LD50 at 360 h (in vivo): 2100 mg/kg
- LD50 (in vivo): 2800 mg/kg
- inhibition at 10 µM (histamine H2 receptors; histamine 1·10^-5 M/L): 90%
- inhibition at 10 µM (histamine H2 receptors; histamine 1·10^-6 M/L): 100%
- inhibition at 10 µM (histamine H2 receptors; histamine 2,5·10^-7 M/L): 100%
- inhibition at 10 µM (histamine H2 receptors; histamine 5·10^-6 M/L): 90%
- inhibition at 10 µM (histamine H2 receptors; histamine 5·10^-7 M/L): 100%
- inhibition at 1 µM (histamine H2 receptors; histamine 1·10^-5 M/L): 40%
- inhibition at 1 µM (histamine H2 receptors; histamine 1·10^-6 M/L): 90%
- inhibition at 1 µM (histamine H2 receptors; histamine 2,5·10^-7 M/L): 100%
- inhibition at 1 µM (histamine H2 receptors; histamine 5·10^-6 M/L): 70%
- inhibition at 1 µM (histamine H2 receptors; histamine 5·10^-7 M/L): 100%
- inhibition at 0.1 µM (histamine H2 receptors; histamine 1·10^-5 M/L): 35%
- inhibition at 0.1 µM (histamine H2 receptors; histamine 1·10^-6 M/L): 70%
- inhibition at 0.1 µM (histamine H2 receptors; histamine 2,5·10^-7 M/L): 95%
- inhibition at 0.1 µM (histamine H2 receptors; histamine 5·10^-6 M/L): 50%
- inhibition at 0.1 µM (histamine H2 receptors; histamine 5·10^-7 M/L): 95%
- inhibition at 0.01 µM (histamine H2 receptors; histamine 1·10^-5 M/L): 15%
- inhibition at 0.01 µM (histamine H2 receptors; histamine 1·10^-6 M/L): 70%
- inhibition at 0.01 µM (histamine H2 receptors; histamine 2,5·10^-7 M/L): 95%
- inhibition at 0.01 µM (histamine H2 receptors; histamine 5·10^-6 M/L): 50%
- inhibition at 0.01 µM (histamine H2 receptors; histamine 5·10^-7 M/L): 85%
- antagonistic action to the histamine H2 receptors (in words) (histamine H2 receptors): interesting ability
- Total acidity gastric juice secretion (gastric secretion; 6 hours before pilorus tieing): 0,05 mEq/4 hours
- Volume gastric juice secretion (gastric secretion; 6 hours before pilorus tieing): 3,0 ml/4 hours
- Total acidity gastric juice secretion (gastric secretion; 12 hours before pilorus tieing): 0,04 mEq/4 hours
- Volume gastric juice secretion (gastric secretion; 12 hours before pilorus tieing): 2,9 ml/4 hours
- Total acidity gastric juice secretion (gastric secretion; 24 hours before pilorus tieing): 0,12 mEq/4 hours
- Volume gastric juice secretion (gastric secretion; 24 hours before pilorus tieing): 4,5 ml/4 hours
- Total acidity gastric juice secretion (gastric secretion; 36 hours before pilorus tieing): 0,12 mEq/4 hours
- Volume gastric juice secretion (gastric secretion; 36 hours before pilorus tieing): 5,0 ml/4 hours
- change in vivo at 20 mg/kg (gastric secretion; [1]): -70%
- change in vivo at 20 mg/kg (gastric secretion; [2]): -43%
- change in vivo at 20 mg/kg (gastric secretion; [3]): -73%
- change in vivo at 20 mg/kg (gastric secretion; [4]): -37%
- change in vivo at 20 mg/kg (gastric secretion; [5]): -29%
- change in vivo at 20 mg/kg (gastric secretion; [6]): -20%
- change in vivo at 20 mg/kg (gastric secretion; [7]): -25%
- change in vivo at 20 mg/kg (gastric secretion; [8]): -11%
- ED50 (gastric secretion): 1.8 mg/kg
- ability to reduce the gastric acid secretion (in words) (gastric secretion): interesting ability
